Assay: recombinant UMI read abundance after kanamycin selection (control-corrected) (log10(CPM+1)); higher = more efficient recombination; extreme values may be limits of the assay; sequences stand for … in AGTGCAGAGAAAATCGGCCAGTTTTCTCTGCCTGCAGTCCGCATGCCGTGGGACCCCTTGGGTTCTAACCTGTTGCCTAGATTTATGCAGCGGACTGCCTTTCTCCCAAAGTGATAAACCGG…AGGTTGGTTTCACT; site = the 11-nt donor
In short: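 Sequenced counts of recombinant UMIs were turned into CPM, averaged across replicates and scaled with control-derived factors. The reported figure is log10(CPM+1). Those UMIs, each 12 nt long, tagged donor and donor-binding-loop pairs on a plasmid with a promoterless kanamycin gene, screened as a pool in Escherichia coli with IPTG (0.07 mM) plus kanamycin or without selection.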
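Also: IS621 bridge recombinase in Escherichia coli cells against a fixed T5 target plasmid.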

Row | Sequence | recombinant UMI read abundance (log10)
1 | CGAGGACCATGGACCGGTTTTCCCGGTAATCCGTATTTGGG (site CGAGGAACTCC) | 0.0189
2 | CGAGGACCATGGACCGGTTTTCCCGGTAATCCGTATTTGGG (site CGAGGACCTAC) | 0
3 | CGAGGACCATGGACCGGTTTTCCCGGTAATCCGTATTTGGG (site CGAGGACCTCA) | 0.0034
4 | CGAGGACCATGGACCGGTTTTCCCGGTAATCCGTATTTGGG (site CGAGGACCTCC) | 0.0104
5 | CGAGGACCATGGACCGGTTTTCCCGGTAATCCGTATTTGGG (site CGAGGACCTCG) | 0
6 | CGAGGACCATGGACCGGTTTTCCCGGTAATCCGTATTTGGG (site CGAGGACCTCT) | 0.0267
7 | CGAGGACCATGGACCGGTTTTCCCGGTAATCCGTATTTGGG (site CGAGGACCTGC) | 0
8 | CGAGGACCATGGACCGGTTTTCCCGGTAATCCGTATTTGGG (site CGAGGACCTTC) | 0.00702
9 | CGAGGACCATGGACCGGTTTTCCCGGTAATCCGTATTTGGG (site CGAGGAGCTCC) | 0.00291
10 | CGAGGACCATGGACCGGTTTTCCCGGTAATCCGTATTTGGG (site CGAGGATCTCC) | 0.156
11 | CGAGGACCATGGACCGGTTTTCCCGGTAATCCGTATTTGGG (site CGAGGCCCTCC) | 0.0207
12 | CGAGGACCATGGACCGGTTTTCCCGGTAATCCGTATTTGGG (site CGAGGGCCTCC) | 0.0101
13 | CGAGGACCATGGACCGGTTTTCCCGGTAATCCGTATTTGGG (site CGAGGTCCTCC) | 0.00323
14 | CGAGGACCATGGACCGGTTTTCCCGGTAATCCGTATTTGGG (site CGAGTACCTCC) | 0
15 | CGAGGACCATGGACCGGTTTTCCCGGTAATCCGTATTTGGG (site CGATGACCTCC) | 0.0104
16 | CGAGGACCATGGACCGGTTTTCCCGGTAATCCGTATTTGGG (site CGCGGACCTCC) | 0
17 | CGAGGACCATGGACCGGTTTTCCCGGTAATCCGTATTTGGG (site CGGGGACCTCC) | 0

Row | Sequence | recombinant UMI read abundance (log10)
18 | CGAGGACCATGGACCGGTTTTCCCGGTAATCCGTATTTGGG (site CGTGGACCTCC) | 0.0136
19 | CGAGGACCATGGACCGGTTTTCCCGGTAATCCGTATTTGGG (site CTAGGACCTCC) | 0.00778
20 | CGAGGACCATGGACCGGTTTTCCCGGTAATCCGTATTTGGG (site GGAGGACCTCC) | 0.0223
21 | CGAGGACCATGGACCGGTTTTCCCGGTAATCCGTATTTGGG (site TGAGGACCTCC) | 0.02
22 | CGAGGACCATGGACCGGTTTTCCCGGTAATCCGTATTTGGT (site CGAGGACCTAC) | 0.0053
23 | CGAGGACCATGGACCGGTTTTCCCGGTAATCCGTATTTGGT (site CGAGGACCTCC) | 0.0157
24 | CGAGGACCATGGACCGGTTTTCCCGGTAATCCGTATTTGGT (site CGAGGACCTGC) | 0
25 | CGAGGACCATGGACCGGTTTTCCCGGTAATCCGTATTTGGT (site CGAGGACCTTC) | 0.0098
26 | CGAGGACCATGGACCGGTTTTCCCGGTAATCCGTATTTGTG (site CGAGGACCTCA) | 0.00285
27 | CGAGGACCATGGACCGGTTTTCCCGGTAATCCGTATTTGTG (site CGAGGACCTCC) | 0.0189
28 | CGAGGACCATGGACCGGTTTTCCCGGTAATCCGTATTTGTG (site CGAGGACCTCG) | 0
29 | CGAGGACCATGGACCGGTTTTCCCGGTAATCCGTATTTGTG (site CGAGGACCTCT) | 0.0187
30 | CGAGGAGCATGGACCGGTTTTCCCGGTAATCCGTATTTGGG (site CGAGGAACTCC) | 0.567
31 | CGAGGAGCATGGACCGGTTTTCCCGGTAATCCGTATTTGGG (site CGAGGACCTCC) | 0.0303
32 | CGAGGAGCATGGACCGGTTTTCCCGGTAATCCGTATTTGGG (site CGAGGAGCTCC) | 0.918
33 | CGAGGAGCATGGACCGGTTTTCCCGGTAATCCGTATTTGGG (site CGAGGATCTCC) | 0.704
34 | CGAGGTCCATGGACCGGTTTTCCCGGTAATCCGTATTTGGG (site CGAGGACCTCC) | 0.0132

Source: the supplement of paper PMC11208160
